Measurements reported in patent US9668497B2, “Flavor-enhancing compounds” (INTERNATIONAL FLAVORS & FRAGRANCES INC., priority 2015, dated 2017).
One block for each compound: values may come before it.

Tests used:
[1] = Cooling enhancement in WS-5 (30 ppm); format: in vivo
Protocol: (§1) The cooling enhancement of Formula I and Na-Formula I in cooling compounds including WS-5 (30 ppm), WS-23 (35 ppm), menthyl lactate (35 ppm), WS-3 (30 ppm) and Cooler 2 (10 ppm) was also evaluated.

[2] = Cooling enhancement in WS-23 (35 ppm); format: in vivo
Protocol: as §1

[3] = Cooling enhancement in various cooling compounds (summary of Example VII); format: in vivo; conditions: WS-5, WS-23, menthyl lactate, WS-3, Cooler 2; table footnote
Protocol: as §1

[4] = Cooling enhancement in menthol (35 ppm), trained sensory panel; format: in vivo
Protocol: The flavor compositions of menthol (35 ppm) combined with 7,8-dihydroxy-2-phenyl-4H-chromen-4-one (Formula I) at different concentrations were evaluated by a trained sensory panel. Sensory results are reported in the following. […]

[5] = Solubility in aqueous solutions; format: physicochemical
[6] = Cooling enhancement in menthyl lactate (35 ppm); format: in vivo
Protocol: as §1

[7] = Cooling enhancement in Cooler 2 (10 ppm); format: in vivo
Protocol: as §1

[8] = Sensory description of Formula I alone in water; format: in vivo; conditions: 20 ppm in water
[9] = Cooling enhancement in WS-3 (30 ppm); format: in vivo
Protocol: as §1

- Solubility in aqueous solutions [5]: sparingly soluble
Structure (SMILES): O=c1cc(-c2ccccc2)oc2c(O)c(O)ccc12 [Formula I, 7,8-dihydroxy-2-phenyl-4H-chromen-4-one]
- Evaluation on the Cooling Enhancement ([1]; test substance 1 ppm): Marginal
- Evaluation on the Cooling Enhancement ([1]; test substance 2 ppm): Marginal
- Evaluation on the Cooling Enhancement ([1]; test substance 5 ppm): Marginal
- Evaluation on the Cooling Enhancement ([1]; test substance 10 ppm): ~15% enhancement
- Evaluation on the Cooling Enhancement ([1]; test substance 20 ppm): ~20% enhancement
- Evaluation on the Cooling Enhancement ([1]; test substance 30 ppm): ~20% enhancement,
- Evaluation on the Cooling Enhancement ([1]; test substance 40 ppm): Enhancement,
- Evaluation on the Cooling Enhancement ([1]; test substance 50 ppm): Enhancement,
- Evaluation on the Cooling Enhancement ([1]; test substance 100 ppm): Enhancement,
- Evaluation on the Cooling Enhancement ([2]; test substance 1 ppm): Marginal
- Evaluation on the Cooling Enhancement ([2]; test substance 2 ppm): Marginal
- Evaluation on the Cooling Enhancement ([2]; test substance 5 ppm): Marginal
- Evaluation on the Cooling Enhancement ([2]; test substance 10 ppm): ~10% enhancement
- Evaluation on the Cooling Enhancement ([2]; test substance 20 ppm): ~20% enhancement
- Evaluation on the Cooling Enhancement ([2]; test substance 30 ppm): ~20% enhancement,
- Evaluation on the Cooling Enhancement ([2]; test substance 40 ppm): Enhancement,
- Evaluation on the Cooling Enhancement ([2]; test substance 50 ppm): Enhancement,
- Evaluation on the Cooling Enhancement ([2]; test substance 100 ppm): Enhancement,
- Cooling enhancement, overall statement [3]: Formula I and Na-Formula I enhanced the cooling sensation of various cooling compounds.
- Cooling enhancement, overall statement ([4]; menthol 35 ppm, table footnote): Formula I enhanced the cooling sensation of menthol.
- Flavor Profile: cooling enhancement ([4]; menthol 35 ppm, test substance 1 ppm): Marginal cooling enhancement
- Flavor Profile: cooling enhancement ([4]; menthol 35 ppm, test substance 2 ppm): Marginal cooling enhancement
- Flavor Profile: cooling enhancement ([4]; menthol 35 ppm, test substance 5 ppm): Marginal cooling enhancement
- Flavor Profile: cooling enhancement ([4]; menthol 35 ppm, test substance 10 ppm): ~10% cooling enhancement
- Flavor Profile: cooling enhancement ([4]; menthol 35 ppm, test substance 20 ppm): ~20% cooling enhancement,
- Flavor Profile: cooling enhancement ([4]; menthol 35 ppm, test substance 30 ppm): ~20% cooling enhancement, slight
- Flavor Profile: cooling enhancement ([4]; menthol 35 ppm, test substance 40 ppm): Cooling enhancement, reduced
- Flavor Profile: cooling enhancement ([4]; menthol 35 ppm, test substance 50 ppm): Cooling enhancement, harsh
- Flavor Profile: cooling enhancement ([4]; menthol 35 ppm, test substance 100 ppm): Cooling enhancement, harsh
- Evaluation on the Cooling Enhancement ([6]; test substance 1 ppm): Marginal
- Evaluation on the Cooling Enhancement ([6]; test substance 2 ppm): Marginal
- Evaluation on the Cooling Enhancement ([6]; test substance 5 ppm): Marginal
- Evaluation on the Cooling Enhancement ([6]; test substance 10 ppm): ~10% enhancement
- Evaluation on the Cooling Enhancement ([6]; test substance 20 ppm): ~20% enhancement
- Evaluation on the Cooling Enhancement ([6]; test substance 30 ppm): ~20% enhancement,
- Evaluation on the Cooling Enhancement ([6]; test substance 40 ppm): Enhancement,
- Evaluation on the Cooling Enhancement ([6]; test substance 50 ppm): Enhancement,
- Evaluation on the Cooling Enhancement ([6]; test substance 100 ppm): Enhancement,
- Evaluation on the Cooling Enhancement ([7]; test substance 1 ppm): Marginal
- Evaluation on the Cooling Enhancement ([7]; test substance 2 ppm): Marginal
- Evaluation on the Cooling Enhancement ([7]; test substance 5 ppm): Marginal
- Evaluation on the Cooling Enhancement ([7]; test substance 10 ppm): ~10% enhancement
- Evaluation on the Cooling Enhancement ([7]; test substance 20 ppm): ~10% enhancement
- Evaluation on the Cooling Enhancement ([7]; test substance 30 ppm): ~20% enhancement,
- Evaluation on the Cooling Enhancement ([7]; test substance 40 ppm): Enhancement,
- Evaluation on the Cooling Enhancement ([7]; test substance 50 ppm): Enhancement,
- Evaluation on the Cooling Enhancement ([7]; test substance 100 ppm): Enhancement,
- Cooling property [8]: no cooling property
- Evaluation on the Cooling Enhancement ([9]; test substance 1 ppm): Marginal
- Evaluation on the Cooling Enhancement ([9]; test substance 2 ppm): Marginal
- Evaluation on the Cooling Enhancement ([9]; test substance 5 ppm): Marginal
- Evaluation on the Cooling Enhancement ([9]; test substance 10 ppm): ~15% enhancement
- Evaluation on the Cooling Enhancement ([9]; test substance 20 ppm): ~20% enhancement
- Evaluation on the Cooling Enhancement ([9]; test substance 30 ppm): ~20% enhancement,
- Evaluation on the Cooling Enhancement ([9]; test substance 40 ppm): Enhancement,
- Evaluation on the Cooling Enhancement ([9]; test substance 50 ppm): Enhancement,
- Evaluation on the Cooling Enhancement ([9]; test substance 100 ppm): Enhancement,

Structure (SMILES): CC1CCC(C(C)C)C(O)C1 (centres unmarked) [Menthol, menthol, reference compound]
- Flavor Profile ([4]; menthol 35 ppm alone, 0 ppm enhancer): Cooling sensation
